Experiments:
[1] = test system: MOLM-13 cells; assay: Annexin V-FITC/PI apoptosis by flow cytometer; format: cell-based, human; settings: 48 hours
Text: The activation of P53 signaling pathway can induce apoptosis, cycle arrest, or senility of cells. […] Therefore, Annexin V-PI fluorescence probe and flow cytometer are used for analyzing the apoptosis of MOML-13 cells after being treated with compound 2 alone or in combination with Decitabine, Azacitidine or Cytarabine (Ara-C).

[2] = test system: MOLM-13; assay: CellTiter-Glo (CTG) cell proliferation experiment; format: cell-based; settings: Homo sapiens, TP53 wt, FLT3-ITD, 72 hours, read-out: IC50 values, nM (Mean ± SD, n = 2 or 3)
[3] = test system: MV-4-11; assay: CellTiter-Glo (CTG) cell proliferation experiment; format: cell-based; settings: Homo sapiens, MV4-11, TP53 wt, FLT3-ITD, 72 hours, read-out: IC50 values, nM (Mean ± SD, n = 2 or 3)
[4] = test system: SKM-1; assay: CellTiter-Glo (CTG) cell proliferation experiment; format: cell-based; settings: Homo sapiens, TP53 mut, 72 hours, read-out: IC50 values, nM (Mean ± SD, n = 2 or 3)
[5] = test system: HL-60; assay: CellTiter-Glo (CTG) cell proliferation experiment; format: cell-based; settings: Homo sapiens, TP53 Del, 72 hours, read-out: IC50 values, nM (Mean ± SD, n = 2 or 3)
[6] = test system: OCI-AML-3; assay: CellTiter-Glo (CTG) cell proliferation experiment; format: cell-based; settings: Homo sapiens, TP53 wt, FLT3 wt, 72 hours, read-out: IC50 values, nM (Mean ± SD, n = 2 or 3)
[7] = test system: human A375 cutaneous melanoma xenograft tumor; assay: Subcutaneous A375 cutaneous melanoma xenograft model; format: in vivo, BALB/c Nude mice
Text: The subcutaneous xenograft tumor model of human tumor immuno-deficient mice is established by the cell inoculation method (reference can be made to Gould S E et al., Translational value of mouse models in oncology drug development, Nature medicine, 2015 21, 431-439, and Souers A J et al., ABT-199, a potent and selective BCL-2 inhibitor, achieves antitumor activity while sparing platelets, Nature medicine, 2012 19.202-208): tumor cells at logarithmic phase are collected, then are resuspended in 1×PBS after being counted, the concentration of the cell suspension is adjusted to 2.5-5×10^7/mL. Tumor cells are subcutaneously inoculated to right-side back of the immuno-deficient mice using a 1 mL syringe (4th needle) at 5-10×10^6/0.2 mL/mouse (experimental animals are purchased from Beijing Vital River Laboratory Animal Technology Co., Ltd. SCXK (Beijing) 2016-0006). All the experimental operations of animals strictly abide by the usage and management standard of experimental animals of GenePharma Co., Ltd. and Suzhou Yasheng Pharmaceutical Co., Ltd. The calculations of related parameters make reference to “Technical guidelines for non-clinical research of cytotoxic anti-tumor drugs” of China CFDA.
The tumor diameter is measured twice using a vernier caliper each week. The computational formula of the tumor volume (TV) is: TV=a×b^2/2. In the computational formula, a and b represent the length and width of the tumor measurement respectively. The computational formula of the relative tumor volume (RTV) is: RTV=VtN1. In the computational formula, V1 is the tumor volume when being grouped and administered, and Vt is the tumor volume when being measured at a certain day after the administration.
The evaluation index of the anti-tumor activity is the relative tumor proliferation rate T/C (%), and the computational formulae respectively are: the relative tumor proliferation rate T/C (%)=(TRTV/CRTV)×100%, TRTV is the RTV of the treatment groups, and CRTV is the RTV of the vehicle control groups. The tumor remission rate (%) is derived by dividing the number of SD (Stable Disease), PR (Partial response) and CR (Complete response) appearing in the tumor bearing mice after treatment by the total number of mice in the group×100%. […]

CCN1[C@@H](C(=O)NC23CCC(C(=O)O)(CC2)CC3)[C@H](c2cccc(Cl)c2F)[C@]2(C(=O)Nc3cc(Cl)ccc32)C12CCCCC2 [Compound 2]
MOLM-13 cells being apoptotic (Annexin V+ cells) ([1]; 40 nM): about 31.0%
MOLM-13 cells being apoptotic (Annexin V+ cells) ([1]; 110 nM): ~55.1%
MOLM-13 cells being apoptotic (Annexin V+ cells) ([1]; 1000 nM): ~96.8%
IC50 [2]: 26.8 ± 4.9 nM
IC50 [3]: 166 ± 42.4 nM
IC50 [4]: 8950 ± 570 nM
IC50 [5]: 2560 ± 582 nM
IC50 [6]: 316 ± 97 nM
T/C (%) @ D18 ([7]; Compound 2 50 mg/kg PO QD × 7D, Trametinib 1 mg/kg, Dabrafenib 30 mg/kg PO QD × 21D): 58.25%
RTV @ D18 (Mean ± SEM) ([7]; Compound 2 50 mg/kg PO QD × 7D, Trametinib 1 mg/kg, Dabrafenib 30 mg/kg PO QD × 21D, vehicle 17.36 ± 1.33): 10.11 ± 1.83
DCR (%) ([7]; disease control rate, CR, PR or SD by mRECIST): 0%
ORR (%) ([7]; objective response rate, CR or PR by mRECIST): 0%

From US12194024B2, “Pharmaceutical composition of MDM2 inhibitor and use thereof for preventing and/or treating disease” (ASCENTAGE PHARMA (SUZHOU) CO., LTD., priority 2019, dated 2025)
